Measured values reported in patent publication US10822325B2, “Human GLUT5 specific inhibitors and methods of treatment” (UNM RAINFOREST INNOVATIONS, priority 2015, dated 2020).
Positions count from the first letter of the chain named. Entries after “also recorded” stand apart in the source; their conditions may differ.

Experiments:
human GLUT1 = target: T1, human GLUT1 (Homo sapiens, UniProt P11166); assay: Glucose entrance counter-flow transport in GLUT1 proteoliposomes; format: biochemical; details: 2 mM compound, one minute
T1 construct: Full length DNA was subcloned into pFastBac1 (Life Technologies) vector with a N-terminal hexahistidine tag; hexahistidine (N); made in house; host or cells: Sf21 insect cells (baculovirus, pFastBac1)
T1 sequence (P11166 1-492): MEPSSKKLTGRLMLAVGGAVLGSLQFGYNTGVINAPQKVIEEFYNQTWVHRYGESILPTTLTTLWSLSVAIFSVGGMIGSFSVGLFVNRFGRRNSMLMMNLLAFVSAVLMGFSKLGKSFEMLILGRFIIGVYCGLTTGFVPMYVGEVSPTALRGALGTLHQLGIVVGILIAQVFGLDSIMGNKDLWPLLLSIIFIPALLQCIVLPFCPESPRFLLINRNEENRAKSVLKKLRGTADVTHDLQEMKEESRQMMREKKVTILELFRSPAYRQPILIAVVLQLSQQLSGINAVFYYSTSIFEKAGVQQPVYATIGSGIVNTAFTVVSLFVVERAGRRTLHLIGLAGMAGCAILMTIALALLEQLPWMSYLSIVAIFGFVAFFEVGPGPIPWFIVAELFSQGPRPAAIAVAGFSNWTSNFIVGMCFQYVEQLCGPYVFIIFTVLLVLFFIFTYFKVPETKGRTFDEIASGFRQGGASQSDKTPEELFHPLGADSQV
Procedure: (§1) cDNAs of GLUT1, 3, 4 and 5 were purchased from Open Biosystems (GE Healthcare). cDNAs of GLUT2 was a gift from Prof. Graeme Bell at University of Chicago. Full length DNA was subcloned into pFastBac1 (Life Technologies) vector with a N-terminal hexahistidine tag. Bacmids were generated in DH10Bac E. coli cells (Life Technologies). Baculoviruses were produced using Cellfectin II Reagent and amplified in Sf21 insect cells (Life Technologies). Cells were maintained at 26° C., and P1 (10^6 pfu/mL) was collected from infected cells after 72 hours. SF21 cells were propagated in HyClone SFX-Insect media (GE Healthcare), supplemented with 5% fetal bovine serum (Biowest), 4.8 mM glutamine, antibiotics (100 units/mL Penicillin G and 100 μg/mL streptomycin sulfate) and amphotericin B (2.5 μg/mL). […]
(§2) For the entrance counterflow transport in proteoliposomes, the assay was started by the addition of 5 μL proteoliposomes solution (OD600 nm ˜30) to 200 μL, assay solution, containing 10 μM ^14C-radiolabeled glucose (for GLUT1 wild-type or F379H mutant and GLUT2-4) or fructose (for GLUT5 wild-type or H387F mutant and GLUT2) (Moravek Biochemicals) in 100 mM KPi buffer at pH 7.5. After one minute (or different specified time points when the time-dependent counter-flow transport activity was measured), the transport was stopped with ice-chilled quench buffer [0.1 M KPi (pH 5.5) and 0.1 M lithium chloride].

GLUT1F379H = target: T2, GLUT1F379H (Homo sapiens, UniProt P11166, F379H); assay: Glucose entrance counter-flow transport in GLUT1F379H mutant proteoliposomes; format: biochemical; details: 2 mM compound
T2 construct: Full length DNA was subcloned into pFastBac1 (Life Technologies) vector with a N-terminal hexahistidine tag; hexahistidine (N); made in house; host or cells: Sf21 insect cells (baculovirus, pFastBac1)
T2 sequence (P11166 1-492 F379H): T1 sequence (P11166 1-492) with F379H
Procedure: as §1, §2

SMILES | effect on GLUT1 glucose transport (human GLUT1) | effect on GLUT1F379H glucose transport (GLUT1F379H)
O=C(CCc1ccc(O)cc1)c1c(O)cc(O)cc1O [phloretin, reference compound] | inhibited | no longer inhibited; also recorded: ceased to inhibit
CS(=O)(=O)c1ccc(Nc2ccc3c(c2)OCO3)c([N+](=O)[O-])c1 [MSNBA, N-[4-(methylsulfonyl)-2-nitrophenyl]-1,3-benzodioxol-5-amine] | did not affect; also recorded: did not influence | remained insensitive; also recorded: remained unaffected
